Measurements taken from patent EP0326628A1, “Method for inhibiting the release of histamine” (VIPONT PHARMACEUTICAL, INC., priority 1988, dated 1989).
Read-outs that look alike come from different tables or passages of the source.

Experiments:
mast cells [1] = test: Histamine release from rat isolated peritoneal mast cells and its inhibition; type: cell-based, male Wistar rat; settings: for Histamine Release (%) / inhibition at 5 µM: Sanguinarine 5 µM
Protocol: In exemplifying the invention, mast cells were isolated from the peritoneal fluid of male Wistar rat as described in Sugiyama, K. (1971) Japan J. Pharmacol. 21, 209-226. The mast cells were suspended in a phosphate buffered saline solution consisting of 154 mM sodium chloride, 2.7mM potassium chloride, 0.9 mM calcium chloride, 6.7 mM KH₂PO₄-Na₂HPO₄, (pH 7.3), and 0.01% bovine serum albumin obtained from Sigma.
For the determination of histamine release and its inhibition by sangainarine., mast cells at a cell density of 10⁵ cells/ml suspended in 0.5 ml of phosphate-buffered saline, were incubated at 37°C for 10 minutes with histamine releasers, more about which is stated below. Sanguinarine was added 5 minutes before the specific histamine releaser. After the action was terminated by the addition of 1.5 ml of ice-cold phosphate-buffered saline solution, the samples were centrifuged at 2,000 rpm for 15 minutes. The histamine in the supernatants and precipitates was determined according to the method of Shore, P.A., Burkhalter, A. and Cohn N.H. (1959) J. Pharmacol. Exp Ther. 127, 182-186. Release of histamine was expressed as a percentage of the total cell content. Percentages of inhibition by sanguinarine were measured according to the following equation: [formula] The sanguinarine chloride was provided from Vipont Laboratories Inc. and is manufactured in the manner disclosed above.
Histidine-rich polypetide fraction A, known as HRP(F-A) was purified from human saliva in accordance with the procedure of Sugiyama, K., Suzuki, Y and Furuta, H (1985) Life Sciences. 37, 475-480. The comparison was carried out with known histamine releasers, namely, 48/80; Concanavalin A; calcium-ionophore A23187. These releasers may be obtained from Sigma Co.
With regard to Figure 1, inhibition by sanguinarine of histamine release induced by compound 48/80 is shown. The mast cells were incubated at 37°C for 10 minutes with and without compound 48/80 in the presence of sanguinarine in varying concentrations. (●) Sanguinarine with compound 48/80 (0.5 µ g/ml), (0) Sanguinarine without compound 48/80.

mast cells [2] = test: Literature (Pearce et al. 1979): inhibition of histamine release produced by compound 48/80, calcium-ionophore A23187 and basic peptide 401; type: cell-based; settings: comparison of IC50 with sanguinarine inhibited histamine release
mast cells [3] = settings: release produced by compound 48/80, calcium-ionophore A23187, basic peptide 401; read-out: IC50, inhibition of histamine release; cited from earlier work
mast cells [4] = settings: compound 48/80; read-out: IC50, compound 48/80 induced histamine release; cited from earlier work

SMILES: C[n+]1cc2c3c(ccc2c2ccc4cc5c(cc4c21)OCO5)OCO3 [Sanguinarine, sanguinarine]
- Histamine Release (%) (mast cells [1]; A23187 (1 µ M)): 21.1%
- Histamine Release (%) (mast cells [1]; Compound 48/80 (0.5 µ g/ml)): 15.4%
- Histamine Release (%) (mast cells [1]; Con A (10 µg/ml) in the presence of phosphatidylserine (10 µ g/ml)): 27.3%
- Histamine Release (%) (mast cells [1]; HRP (16 µ M)): 17.6%
- IC50 (mast cells [1]; Rattus norvegicus, Mast cell, 10 min, compound 48/80 (0.5 µ g/ml), 37°C, 10 minutes, Figure 1, read-out: IC50 (inhibition concentration), 48/80 induced histamine release from mast cells): ~2 µM
- inhibition at 5 µM (mast cells [1]; Rattus norvegicus, Mast cell, A23187 (1 µ M)): 63.4%
- inhibition at 5 µM (mast cells [1]; Rattus norvegicus, Mast cell, Compound 48/80 (0.5 µ g/ml)): 78.7%
- inhibition at 5 µM (mast cells [1]; Rattus norvegicus, Mast cell, Con A (10 µg/ml) in the presence of phosphatidylserine (10 µ g/ml)): 56.6%
- inhibition at 5 µM (mast cells [1]; Rattus norvegicus, Mast cell, HRP (16 µ M)): 69.4%
- inhibition at 5 µM (mast cells [1]; Rattus norvegicus, Mast cell, Triton X-100 (0.01 %)): -10.6%
- Histamine Release (%) (mast cells [1]; Triton X-100 (0.01 %)): 93.8%

SMILES: O=C(O)c1cc(=O)c2c(OCC(O)COc3cccc4oc(C(=O)O)cc(=O)c34)cccc2o1 [cromoglycate]
- times less active than sanguinarine (mast cells [2]): 10 to 100 times
- IC50 (mast cells [3]): 10 to 1000 µM

SMILES: C[C@]12CCC(=O)C=C1CC[C@@H]1[C@@H]2[C@@H](O)C[C@@]2(C)[C@H]1CC[C@]2(O)C(=O)CO [hydrocortisone]
- IC50 (mast cells [4]): 2100 µM

SMILES: COc1ccc2c(c1)c(CC(=O)O)c(C)n2C(=O)c1ccc(Cl)cc1 [indomethacin]
- IC50 (mast cells [4]): 75 µM

SMILES: O=C([O-])c1ccccc1O.[Na+] [sodium salicylate]
- IC50 (mast cells [4]): 1600 µM

SMILES: Cn1c(=O)c2[nH]cnc2n(C)c1=O [theophylline]
- times less active than sanguinarine (mast cells [2]): 10 to 100 times
- IC50 (mast cells [3]): 10 to 1000 µM
